From the supplement of paper PMC9663587

Tests used:
[1] = compound: CCc1cnn2c(NCc3ccc[n+]([O-])c3)cc(N3CCCC[C@H]3CCO)nc12; assay: increase in dead-cell fraction, 72 h; higher = more death;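 further: breast cancer cell lines in 384-well plates, stained with Hoechst plus LIVE/DEAD far red dye and imaged, cells above an LDR intensity threshold counted dead, Hoechst-negative corpses included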
Flavopiridol [2] = compound: T1, CN1CC[C@H](c2c(O)cc(O)c3c(=O)cc(-c4ccccc4Cl)oc23)[C@H](O)C1 [Flavopiridol]; assay: as above
LEE011/Ribociclib = compound: CN(C)C(=O)c1cc2cnc(Nc3ccc(N4CCNCC4)cn3)nc2n1C1CCCC1 [LEE011/Ribociclib]; assay: as above
BSJ-03-123 = compound: CC(=O)c1c(C)c2cnc(Nc3ccc(N4CCN(CCOCCOCCOCCNC(=O)COc5cccc6c5C(=O)N(C5CCC(=O)NC5=O)C6=O)CC4)cn3)nc2n(C2CCCC2)c1=O [BSJ-03-123]; assay: as above
[3] = compound: CC(=O)c1c(C)c2cnc(Nc3ccc(N4CCNCC4)cn3)nc2n(C2CCCC2)c1=O; assay: as above
[4] = compound: CCN1CCN(Cc2ccc(Nc3ncc(F)c(-c4cc(F)c5nc(C)n(C(C)C)c5c4)n3)nc2)CC1; assay: as above
THZ1 [5] = compound: T2, CN(C)C/C=C/C(=O)Nc1ccc(C(=O)Nc2cccc(Nc3ncc(Cl)c(-c4c[nH]c5ccccc45)n3)c2)cc1 [THZ1]; assay: as above
Neratinib/HKI272 = compound: CCOc1cc2ncc(C#N)c(Nc3ccc(OCc4ccccn4)c(Cl)c3)c2cc1NC(=O)/C=C/CN(C)C [Neratinib/HKI272]; assay: as above
Flavopiridol [6] = compound: T1, Flavopiridol; assay: GR value, 72 h; higher = faster growth (1 = untreated, <0 = killing);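 further: breast cancer and non-malignant breast epithelial lines, nine half-log doses, viable cells counted by Hoechst and LIVE/DEAD dye imaging versus time-zero plates and DMSO controls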
[7] = compound: CC(=O)c1c(C)c2cnc(Nc3ccc(N4CCNCC4)cn3)nc2n(C2CCCC2)c1=O; assay: as above
THZ531 = compound: CN(C)C/C=C/C(=O)Nc1ccc(C(=O)N2CCC[C@@H](Nc3ncc(Cl)c(-c4c[nH]c5ccccc45)n3)C2)cc1 [THZ531]; assay: as above
THZ1 [8] = compound: T2, THZ1; assay: as above

Cell Line: HCC1569
- increase in dead-cell fraction ([1]; 0.0001 µM): -0.0022
- increase in dead-cell fraction ([1]; 0.0003162 µM): -0.0018
- increase in dead-cell fraction ([1]; 0.001 µM): -0.0077
- increase in dead-cell fraction ([1]; 0.003162 µM): -0.0052
- increase in dead-cell fraction ([1]; 0.01 µM): 0.0106
- increase in dead-cell fraction ([1]; 0.03162 µM): 0.112
- increase in dead-cell fraction ([1]; 0.1 µM): 0.155
- increase in dead-cell fraction ([1]; 0.3162 µM): 0.138
- increase in dead-cell fraction ([1]; 1 µM): 0.141
- increase in dead-cell fraction (Flavopiridol [2]; 0.0001 µM): -0.0248
- increase in dead-cell fraction (Flavopiridol [2]; 0.0003162 µM): 0.001
- increase in dead-cell fraction (Flavopiridol [2]; 0.001 µM): 0.0101
- increase in dead-cell fraction (Flavopiridol [2]; 0.003162 µM): 0.0075
- increase in dead-cell fraction (Flavopiridol [2]; 0.01 µM): -0.0095
- increase in dead-cell fraction (Flavopiridol [2]; 0.03162 µM): -0.0064
- increase in dead-cell fraction (Flavopiridol [2]; 0.1 µM): 0.0067
- increase in dead-cell fraction (Flavopiridol [2]; 0.3162 µM): 0.0986
- increase in dead-cell fraction (Flavopiridol [2]; 1 µM): 0.102
- increase in dead-cell fraction (LEE011/Ribociclib; 0.001 µM): 0.0294
- increase in dead-cell fraction (LEE011/Ribociclib; 0.003162 µM): 0.0001
- increase in dead-cell fraction (LEE011/Ribociclib; 0.01 µM): -0.0082
- increase in dead-cell fraction (LEE011/Ribociclib; 0.03162 µM): 0.0025
- increase in dead-cell fraction (LEE011/Ribociclib; 0.1 µM): -0.0135
- increase in dead-cell fraction (LEE011/Ribociclib; 0.3162 µM): -0.0045
- increase in dead-cell fraction (LEE011/Ribociclib; 1 µM): -0.0042
- increase in dead-cell fraction (LEE011/Ribociclib; 3.162 µM): -0.0048
- increase in dead-cell fraction (LEE011/Ribociclib; 10 µM): -0.0015
- increase in dead-cell fraction (BSJ-03-123; 0.001 µM): 0.0046
- increase in dead-cell fraction (BSJ-03-123; 0.003162 µM): -0.0135
- increase in dead-cell fraction (BSJ-03-123; 0.01 µM): 0.0005
- increase in dead-cell fraction (BSJ-03-123; 0.03162 µM): 0.0168
- increase in dead-cell fraction (BSJ-03-123; 0.1 µM): 0.002
- increase in dead-cell fraction (BSJ-03-123; 0.3162 µM): 0.0007
- increase in dead-cell fraction (BSJ-03-123; 1 µM): 0.0247
- increase in dead-cell fraction (BSJ-03-123; 3.162 µM): 0.0066
- increase in dead-cell fraction (BSJ-03-123; 10 µM): 0.0866
- increase in dead-cell fraction ([3]; 0.0003162 µM): 0.0023
- increase in dead-cell fraction ([3]; 0.001 µM): -0.0102
- increase in dead-cell fraction ([3]; 0.003162 µM): 0.0038
- increase in dead-cell fraction ([3]; 0.01 µM): 0.0052
- increase in dead-cell fraction ([3]; 0.03162 µM): -0.0056
- increase in dead-cell fraction ([3]; 0.1 µM): -0.0096
- increase in dead-cell fraction ([3]; 0.3162 µM): 0.0042
- increase in dead-cell fraction ([3]; 1 µM): 0.0001
- increase in dead-cell fraction ([3]; 3.162 µM): -0.0109
- increase in dead-cell fraction ([4]; 0.001 µM): -0.0009
- increase in dead-cell fraction ([4]; 0.003162 µM): 0.0054
- increase in dead-cell fraction ([4]; 0.01 µM): 0.0105
- increase in dead-cell fraction ([4]; 0.03162 µM): 0.0034
- increase in dead-cell fraction ([4]; 0.1 µM): -0.0024
- increase in dead-cell fraction ([4]; 0.3162 µM): -0.0047
- increase in dead-cell fraction ([4]; 1 µM): 0.0011
- increase in dead-cell fraction ([4]; 3.162 µM): 0.0024
- increase in dead-cell fraction ([4]; 10 µM): 0.0361
- increase in dead-cell fraction (THZ1 [5]; 0.0001 µM): -0.004
- increase in dead-cell fraction (THZ1 [5]; 0.0003162 µM): -0.0128
- increase in dead-cell fraction (THZ1 [5]; 0.001 µM): 0.0063
- increase in dead-cell fraction (THZ1 [5]; 0.003162 µM): -0.0051
- increase in dead-cell fraction (THZ1 [5]; 0.01 µM): 0.0163
- increase in dead-cell fraction (THZ1 [5]; 0.03162 µM): 0.0231
- increase in dead-cell fraction (THZ1 [5]; 0.1 µM): 0.208
- increase in dead-cell fraction (THZ1 [5]; 0.3162 µM): 0.147
- increase in dead-cell fraction (THZ1 [5]; 1 µM): 0.166
- increase in dead-cell fraction (Neratinib/HKI272; 0.0003162 µM): -0.0105
- increase in dead-cell fraction (Neratinib/HKI272; 0.001 µM): 0.0063
- increase in dead-cell fraction (Neratinib/HKI272; 0.003162 µM): 0.0037
- increase in dead-cell fraction (Neratinib/HKI272; 0.01 µM): 0.0107
- increase in dead-cell fraction (Neratinib/HKI272; 0.03162 µM): 0.0135
- increase in dead-cell fraction (Neratinib/HKI272; 0.1 µM): 0.0196
- increase in dead-cell fraction (Neratinib/HKI272; 0.3162 µM): 0.0247
- increase in dead-cell fraction (Neratinib/HKI272; 1 µM): 0.0283
- increase in dead-cell fraction (Neratinib/HKI272; 3.162 µM): 0.0338
- GR value (Flavopiridol [6]; 0.0001 µM): 1.24 GR
- GR value (Flavopiridol [6]; 0.0003162 µM): 1.13 GR
- GR value (Flavopiridol [6]; 0.001 µM): 0.828 GR
- GR value (Flavopiridol [6]; 0.003162 µM): 1.19 GR
- GR value (Flavopiridol [6]; 0.01 µM): 1.02 GR
- GR value (Flavopiridol [6]; 0.03162 µM): 0.846 GR
- GR value (Flavopiridol [6]; 0.1 µM): 0.422 GR
- GR value (Flavopiridol [6]; 0.3162 µM): 0.0517 GR
- GR value (Flavopiridol [6]; 1 µM): -0.284 GR
- GR value ([7]; 0.0003162 µM): 0.957 GR
- GR value ([7]; 0.001 µM): 0.991 GR
- GR value ([7]; 0.003162 µM): 1.03 GR
- GR value ([7]; 0.01 µM): 1.05 GR
- GR value ([7]; 0.03162 µM): 0.928 GR
- GR value ([7]; 0.1 µM): 0.938 GR
- GR value ([7]; 0.3162 µM): 1.06 GR
- GR value ([7]; 1 µM): 0.932 GR
- GR value ([7]; 3.162 µM): 1.05 GR
- GR value (THZ531; 0.0001 µM): 1.2 GR
- GR value (THZ531; 0.0003162 µM): 1.02 GR
- GR value (THZ531; 0.001 µM): 1.03 GR
- GR value (THZ531; 0.003162 µM): 1.15 GR
- GR value (THZ531; 0.01 µM): 1.09 GR
- GR value (THZ531; 0.03162 µM): 0.907 GR
- GR value (THZ531; 0.1 µM): -0.21 GR
- GR value (THZ531; 0.3162 µM): -0.155 GR
- GR value (THZ531; 1 µM): 0.0205 GR
- GR value (THZ1 [8]; 0.0001 µM): 1.16 GR
- GR value (THZ1 [8]; 0.0003162 µM): 1.14 GR
- GR value (THZ1 [8]; 0.001 µM): 1.15 GR
- GR value (THZ1 [8]; 0.003162 µM): 1.42 GR
- GR value (THZ1 [8]; 0.01 µM): 0.908 GR
- GR value (THZ1 [8]; 0.03162 µM): 0.468 GR
- GR value (THZ1 [8]; 0.1 µM): -0.112 GR
- GR value (THZ1 [8]; 0.3162 µM): -0.346 GR
- GR value (THZ1 [8]; 1 µM): -0.325 GR
